Converted amounts (≈) assume the structure as drawn.
Legend:
[1] = molecular target: PDE4 (U937); experiment: PDE4 enzyme inhibition, IMAP fluorescence polarization assay; assay type: biochemical, human; conditions: for IC50: PDE4 partially purified from U937 cells
Experimental: PDE4 is partially purified from undifferentiated human monocytic cells (U937) according to Thorpy et al. 1992 (J. Pharmacol. Exp. Ther. 263: 1195). Cells are grown in Iscove's modified Dulbecco's medium (GIBCO) with 5% foetal bovine serum (GIBCO) and 100 μg/mL penicillin-streptomycin (GIBCO). Cells are broken by sonication and PDE4 is purified by anion-exchange chromatography on DEAE-Sepharose CL-6B (GE Healthcare). […] In addition, PDE4 preparations are validated by inhibition studies with PDE4-specific and unspecific PDE inhibitors.
PDEs specifically hydrolyze cAMP and/or cGMP and release the product AMP and/or GMP. The potency of PDE inhibition by test compounds is determined with a commercially available in vitro enzymatic assay (IMAP® Fluorescence Polarization assay, Molecular Devices Corp.). Fluorescently labeled cAMP or cGMP is hydrolyzed by PDE preparations and in a second step, binding of labeled product to a large binding partner allows product detection by fluorescence polarization (FP) measurements.
Stock solutions of the test compounds are made in DMSO and diluted in assay buffer (10 mM Tris-HCl, 10 mM MgCl2, 0.1% BSA 0.05% NaN3, pH 7.2) to the desired concentrations. The solutions used in the assay contain the test compound in assay buffer with 2% DMSO. 5 μl of this pre-diluted test compound solution are mixed with 10 μl of substrate (FL-cAMP or FL-cGMP) at concentrations recommended by the manufacturer and with 5 μl of appropriately diluted PDE. 5 μl of reaction buffer with 2% DMSO are used for control reactions. […] After incubation for 90 minutes at room temperature, 60 μl of binding reagent are added as specified by the manufacturer. Binding is allowed to proceed for 30 minutes and fluorescence polarization is measured. Dose dependence of PDE inhibition is measured by assaying dilution series of test compounds. IC50 values are determined from the measured activities by curve fitting.

[2] = molecular target: hERG channel (Homo sapiens (Human), UniProt Q12809); experiment: Blocking of hERG channel, whole-cell patch clamp in stably transfected HEK 293 cells; assay type: cell-based; conditions: for Blocking of hERG @ 1 μM (% remaining tail current) / Blocking of hERG @ 10 μM (% remaining tail current): HEK 293 cells
[3] = Oral bioavailability, pharmacokinetic study in mice; assay type: in vivo, mouse; conditions: for bioavailability: in vivo, mouse, 10 mg/kg oral, 1 mg/kg intravenous, dose-normalized AUC, read-out: Oral bioavail. (mouse F %)
Experimental: Drug concentrations in blood or plasma are determined as a function of time in pharmacokinetic studies. Mice were treated with the test compound at defined doses. 10 mg/kg is used for oral administration and 1 mg/kg is taken for intravenous administration. Blood or plasma samples are collected at defined time-points and the drug content is determined by LC-MS/MS. The drug concentration is plotted as a function of time and the non-intravenous (oral) and the intravenous area under the curve (AUC) is calculated using the linear trapezoidal rule. The oral bioavailability is then calculated using dose-normalized AUC with the following formula: F[%]=AUCoral/AUCintravenous*100 Blocking of hERG Channel

[4] = tested on: P. acnes EG7NS; experiment: MIC determination by broth microdilution (anaerobic); assay type: cell-based, Propionibacterium acnes; conditions: for MIC: Cutibacterium acnes, EG7NS, read-out: MIC (μg/ml) P. acnes EG7NS
Experimental: (§1) All MIC values are determined by broth microdilution according to the guidelines by the Clinical and Laboratory Standards Institute (CLSI, Wayne Pa., USA). Staphylococcus aureus ATCC29213 is grown on Müller-Hinton agar (MHA) (Becton Dickinson) and then in cation-adjusted Müller Hinton broth (CaMHB) (Becton Dickinson) for 24 h at 37° C. Streptococcus pyogenes ATCC19615 and Moraxella catharrhalis QK34 are grown on MHA with 2.5% Laked Horse Blood (Oxoid). Liquid cultures in CaMHB+5% horse serum (Sigma) are incubated for 24 h at 35° C. in a 5% CO2 atmosphere. Haemophilus. influenzae 3168 is grown on MHA+2.5% Fildes extract (Oxoid). Liquid cultures are grown in CaMHB+5% Fildes extract at 35° C. in a 5% CO2 atmosphere. Propionibacteria are grown on Wilkins-Chalgren agar (WCA) (Oxoid) for 72 h under anaerobic conditions. Liquid cultures are grown anaerobically in Wilkins-Chalgren broth (WCB) (Oxoid) for 48 h at 35° C. MIC values are obtained by broth microdilution using WCB (Anaerobe Broth MIC, Difco). Microtitre plates are loaded into 7-L GENbox anaerobic incubation jars (BioMerieux) fitted with anaerobic atmosphere generators (BioMerieux) and a Dry Anaerobic Indicator Strip (BBL). Under these conditions, an O2 concentration <0.1% is achieved by 2.5 h, and a CO2 concentration >15% by 24 h.

[5] = tested on: M. catarrhalis QK34; experiment: MIC determination by broth microdilution; assay type: cell-based, Moraxella catharrhalis; conditions: Moraxella catarrhalis, read-out: MIC (μg/ml) M. catarrhalis QK34
Experimental: as §1

[6] = tested on: P. granulosum EG13NS; experiment: MIC determination by broth microdilution (anaerobic); assay type: cell-based; conditions: read-out: MIC (μg/ml) P. granulosum EG13NS
Experimental: as §1

[7] = tested on: H. influenzae 3168; experiment: MIC determination by broth microdilution; assay type: cell-based; conditions: Haemophilus influenzae, read-out: MIC (μg/ml) H. influenzae 3168
Experimental: as §1

[8] = tested on: S. aureus ATCC29213; experiment: MIC determination by broth microdilution; assay type: cell-based; conditions: Staphylococcus aureus, read-out: MIC (μg/ml) S. aureus ATCC29213
Experimental: as §1

[9] = tested on: S. pyogenes ATCC19615; experiment: MIC determination by broth microdilution; assay type: cell-based; conditions: Streptococcus pyogenes, read-out: MIC (μg/ml) S. pyogenes ATCC19615
Experimental: as §1

[10] = tested on: bacteria; experiment: Antibacterial activity; assay type: cell-based
Experimental: as §1

hERG channel, sequence (Q12809 whole entry): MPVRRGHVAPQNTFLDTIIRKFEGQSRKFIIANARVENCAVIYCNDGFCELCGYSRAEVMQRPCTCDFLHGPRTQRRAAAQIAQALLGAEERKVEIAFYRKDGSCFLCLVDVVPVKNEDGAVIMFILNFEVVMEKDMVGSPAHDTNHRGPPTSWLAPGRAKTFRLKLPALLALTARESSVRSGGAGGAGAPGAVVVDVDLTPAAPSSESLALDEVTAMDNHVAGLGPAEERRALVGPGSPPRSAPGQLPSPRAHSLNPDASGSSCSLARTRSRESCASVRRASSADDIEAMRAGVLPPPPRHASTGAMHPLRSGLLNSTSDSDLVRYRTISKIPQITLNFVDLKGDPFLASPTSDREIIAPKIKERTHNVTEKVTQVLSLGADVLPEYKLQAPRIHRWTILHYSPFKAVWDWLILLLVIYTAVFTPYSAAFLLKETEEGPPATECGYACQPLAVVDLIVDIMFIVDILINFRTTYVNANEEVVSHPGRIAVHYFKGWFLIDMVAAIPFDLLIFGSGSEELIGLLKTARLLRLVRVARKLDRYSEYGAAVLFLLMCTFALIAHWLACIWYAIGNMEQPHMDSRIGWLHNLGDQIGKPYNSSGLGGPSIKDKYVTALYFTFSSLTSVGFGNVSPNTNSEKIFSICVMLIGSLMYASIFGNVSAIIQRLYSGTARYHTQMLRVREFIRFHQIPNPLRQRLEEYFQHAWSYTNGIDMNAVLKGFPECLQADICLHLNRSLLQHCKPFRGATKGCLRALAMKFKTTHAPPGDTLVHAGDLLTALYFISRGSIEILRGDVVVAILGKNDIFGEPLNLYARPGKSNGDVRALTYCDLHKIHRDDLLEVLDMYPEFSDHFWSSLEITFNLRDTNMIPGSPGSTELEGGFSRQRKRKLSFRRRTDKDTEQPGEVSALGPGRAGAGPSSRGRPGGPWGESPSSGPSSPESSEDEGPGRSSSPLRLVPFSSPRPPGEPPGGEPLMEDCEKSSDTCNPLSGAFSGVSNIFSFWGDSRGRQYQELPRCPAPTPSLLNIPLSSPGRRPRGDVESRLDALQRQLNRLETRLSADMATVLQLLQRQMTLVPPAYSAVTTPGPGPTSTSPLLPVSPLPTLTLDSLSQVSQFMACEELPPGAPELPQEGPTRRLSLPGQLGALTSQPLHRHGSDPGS

| SMILES | IC50 [1] [µM] | Blocking of hERG @ 1 μM (% remaining tail current) [2] [%] | Blocking of hERG @ 10 μM (% remaining tail current) [2] [%] | bioavailability [3] [%] | MIC [4] [µg/mL] | MIC [5] [µg/mL] | MIC [6] [µg/mL] | MIC [7] [µg/mL] | MIC [8] [µg/mL] | MIC [9] [µg/mL] | PDE4-inhibiting activity (in words) [1] | oral bioavailability (in words) [3] | antibacterial activity (in words) [10] | hERG channel inhibiting activity (in words) [2] | activity against certain strains of Propionibacterium acnes (in words) [4] |
| --- | --- | --- | --- | --- | --- | --- | --- | --- | --- | --- | --- | --- | --- | --- | --- |
| CC[C@H]1OC(=O)[C@H](C)[C@@H](O[C@H]2C[C@@](C)(OC)[C@@H](O)[C@H](C)O2)[C@H](C)[C@@H](O[C@@H]2O[C@H](C)C[C@H](N(C)C(=O)N3CCOCC3)[C@H]2O)[C@](C)(OC)C[C@@H](C)C(=O)[C@H](C)[C@H]2[C@H](SCCN(Cc3c(Cl)cncc3Cl)c3ccc(OC)c(OC4CCCC4)c3)C(=O)O[C@@]21C | 0.043 | 99.2 | 82.9 | 1.5 | > 32 | > 32 | > 32 | > 32 | > 32 | > 32 |  |  |  |  |  |
| CC[C@H]1OC(=O)[C@H](C)[C@@H](O[C@H]2C[C@@](C)(OC)[C@@H](O)[C@H](C)O2)[C@H](C)[C@@H](O[C@@H]2O[C@H](C)C[C@H](N(C)C(C)=O)[C@H]2O)[C@](C)(OC)C[C@@H](C)C(=O)[C@H](C)[C@H]2[C@H](SCCN(Cc3c(Cl)cncc3Cl)c3ccc(OC)c(OC4CCCC4)c3)C(=O)O[C@@]21C [Example 10 of WO2009/106419] | 0.031 | 95.9 | 85.5 | 25.5 | 4 (≈ 3.26 µM) | 8 (≈ 6.53 µM) | 2 (≈ 1.63 µM) | 32 (≈ 26.1 µM) | > 32 | 8 (≈ 6.53 µM) | excellent | particularly good | strong remaining antibacterial activity against certain types of bacteria |  |  |
| CC[C@H]1OC(=O)[C@H](C)[C@@H](O)[C@H](C)[C@@H](O[C@@H]2O[C@H](C)C[C@H](N(C)C)[C@H]2OC)[C@](C)(OC)C[C@@H](C)C(=O)[C@H](C)[C@H]2[C@H](SCCN(Cc3c(Cl)cncc3Cl)c3ccc(OC)c(OC4CCCC4)c3)C(=O)O[C@@]21C [Example 9 of WO2009/106419] | 0.3 | 23.7 | 3.7 | 9 | 4 (≈ 3.8 µM) | > 32 | 4 (≈ 3.8 µM) | > 32 | 8 (≈ 7.6 µM) | 32 (≈ 30.4 µM) | good to moderate | moderate | antibacterially inactive against many pathogenic types of bacteria | rather strong |  |
| CC[C@H]1OC(=O)[C@H](C)[C@@H](O)[C@H](C)[C@@H](O[C@@H]2O[C@H](C)C[C@H](N(C)C(=O)N3CCOCC3)[C@H]2O)[C@](C)(OC)C[C@@H](C)C(=O)[C@H](C)[C@H]2[C@H](SCCOc3cc(C(=O)Nc4c(Cl)cncc4Cl)ccc3OC)C(=O)O[C@@]21C | 0.0001 | 99.9 | 100 | 11.5 | > 32 | > 32 | > 32 | > 32 | > 32 | > 32 |  |  |  |  |  |
| CC[C@H]1OC(=O)[C@H](C)[C@@H](O[C@H]2C[C@@](C)(OC)[C@@H](O)[C@H](C)O2)[C@H](C)[C@@H](O[C@@H]2O[C@H](C)C[C@H](N(C)C(=O)N3CCOCC3)[C@H]2O)[C@](C)(OC)C[C@@H](C)C(=O)[C@H](C)[C@H]2[C@H](SCCOc3cc(C(=O)Nc4c(Cl)cncc4Cl)ccc3OC)C(=O)O[C@@]21C [Example 15 WO2009/106419] | 0.071 | 100 | 98.6 | 4.6 | > 32 | > 32 | > 32 | > 32 | > 32 | > 32 | excellent | rather low | strongly reduced |  |  |
| CC[C@H]1OC(=O)[C@H](C)[C@@H](O)[C@H](C)[C@@H](O[C@@H]2O[C@H](C)C[C@H](N(C)C(=O)N3CCOCC3)[C@H]2O)[C@](C)(OC)C[C@@H](C)C(=O)[C@H](C)[C@H]2C(SCCN(Cc3c(Cl)cncc3Cl)c3ccc(OC)c(OC4CCCC4)c3)C(=O)O[C@@]21C (stereo in doubt) [compound of formula (I)] | 0.035 | 99.9 | 98 | 22.8 | > 32 | > 32 | > 32 | > 32 | > 32 | > 32 | excellent | particularly good | strongly reduced | does not inhibit |  |
| CC[C@H]1OC(=O)[C@H](C)[C@@H](O[C@H]2C[C@@](C)(OC)[C@@H](O)[C@H](C)O2)[C@H](C)[C@@H](O[C@@H]2O[C@H](C)C[C@H](N(C)C(=O)N3CCOCC3)[C@H]2O)[C@](C)(OC)C[C@@H](C)C(=O)[C@H](C)[C@H]2N(CCCOc3cc(C(=O)Nc4c(Cl)cncc4Cl)ccc3OC)C(=O)O[C@]12C [Example 2 of WO2001/018510] | 0.876 | 99 | 84 | 16.2 | 2 (≈ 1.63 µM) | > 32 | > 32 | > 32 | > 32 | > 32 |  | moderate to good | low against many bacterial strains | acceptable | still very active |
